Measured values: PMC9785850, “Encorafenib Acts as a Dual-Activity Chemosensitizer through Its Inhibitory Effect on ABCC1 Transporter In Vitro and Ex Vivo” (Pharmaceutics, 2022)

Tests used:
P-glycoprotein (ABCB1) = target: T1, P-glycoprotein (ABCB1) (Homo sapiens, UniProt P08183); assay: daunorubicin accumulation assay in MDCKII-ABCB1 cells, flow cytometry; type: cell-based
T1 construct: human ABCB1 overexpressed in MDCKII cells

ABCC1 = target: T2, ABCC1 (Homo sapiens, UniProt P33527); assay: daunorubicin accumulation assay in MDCKII-ABCC1 cells, flow cytometry; type: cell-based
T2 construct: human ABCC1 overexpressed in MDCKII cells
T2 sequence (P33527 whole entry): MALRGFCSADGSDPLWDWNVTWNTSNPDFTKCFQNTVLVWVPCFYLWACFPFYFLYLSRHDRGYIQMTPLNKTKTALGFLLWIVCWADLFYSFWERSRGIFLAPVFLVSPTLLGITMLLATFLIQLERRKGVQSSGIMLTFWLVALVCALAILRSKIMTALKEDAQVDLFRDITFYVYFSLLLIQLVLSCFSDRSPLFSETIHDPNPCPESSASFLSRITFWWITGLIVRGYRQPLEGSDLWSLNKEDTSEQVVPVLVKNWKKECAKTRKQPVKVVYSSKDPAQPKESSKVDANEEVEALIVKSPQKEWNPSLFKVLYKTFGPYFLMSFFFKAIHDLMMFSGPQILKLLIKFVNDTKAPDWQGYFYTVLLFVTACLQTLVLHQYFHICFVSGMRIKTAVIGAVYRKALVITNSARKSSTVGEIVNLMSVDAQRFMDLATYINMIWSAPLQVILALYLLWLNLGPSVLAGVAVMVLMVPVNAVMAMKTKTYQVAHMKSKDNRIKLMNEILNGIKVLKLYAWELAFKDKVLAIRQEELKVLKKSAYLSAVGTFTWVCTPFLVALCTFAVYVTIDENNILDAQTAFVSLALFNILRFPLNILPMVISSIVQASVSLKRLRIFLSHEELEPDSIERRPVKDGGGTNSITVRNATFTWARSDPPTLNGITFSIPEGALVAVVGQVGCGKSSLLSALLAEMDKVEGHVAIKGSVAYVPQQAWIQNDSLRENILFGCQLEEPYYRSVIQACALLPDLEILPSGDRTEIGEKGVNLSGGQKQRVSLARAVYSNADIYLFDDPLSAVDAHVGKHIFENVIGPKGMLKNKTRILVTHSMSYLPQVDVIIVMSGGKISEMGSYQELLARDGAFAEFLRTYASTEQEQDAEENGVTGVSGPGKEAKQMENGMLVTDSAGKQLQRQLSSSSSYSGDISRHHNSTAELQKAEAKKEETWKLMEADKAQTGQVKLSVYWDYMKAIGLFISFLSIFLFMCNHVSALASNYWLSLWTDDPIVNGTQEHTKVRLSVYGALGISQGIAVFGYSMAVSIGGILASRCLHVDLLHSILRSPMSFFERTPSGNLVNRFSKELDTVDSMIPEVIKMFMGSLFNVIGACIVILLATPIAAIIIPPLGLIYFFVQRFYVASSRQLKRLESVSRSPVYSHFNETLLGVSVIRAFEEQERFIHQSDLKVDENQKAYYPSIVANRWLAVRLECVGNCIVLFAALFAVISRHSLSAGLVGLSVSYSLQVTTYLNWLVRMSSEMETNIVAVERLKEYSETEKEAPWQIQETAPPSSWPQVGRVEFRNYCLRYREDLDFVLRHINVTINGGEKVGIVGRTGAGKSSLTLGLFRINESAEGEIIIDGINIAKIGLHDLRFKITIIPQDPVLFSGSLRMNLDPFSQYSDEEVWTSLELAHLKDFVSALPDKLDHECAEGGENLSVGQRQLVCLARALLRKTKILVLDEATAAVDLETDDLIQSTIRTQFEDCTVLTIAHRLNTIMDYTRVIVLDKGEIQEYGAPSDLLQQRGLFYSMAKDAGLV

T1 sequence (P08183 whole entry): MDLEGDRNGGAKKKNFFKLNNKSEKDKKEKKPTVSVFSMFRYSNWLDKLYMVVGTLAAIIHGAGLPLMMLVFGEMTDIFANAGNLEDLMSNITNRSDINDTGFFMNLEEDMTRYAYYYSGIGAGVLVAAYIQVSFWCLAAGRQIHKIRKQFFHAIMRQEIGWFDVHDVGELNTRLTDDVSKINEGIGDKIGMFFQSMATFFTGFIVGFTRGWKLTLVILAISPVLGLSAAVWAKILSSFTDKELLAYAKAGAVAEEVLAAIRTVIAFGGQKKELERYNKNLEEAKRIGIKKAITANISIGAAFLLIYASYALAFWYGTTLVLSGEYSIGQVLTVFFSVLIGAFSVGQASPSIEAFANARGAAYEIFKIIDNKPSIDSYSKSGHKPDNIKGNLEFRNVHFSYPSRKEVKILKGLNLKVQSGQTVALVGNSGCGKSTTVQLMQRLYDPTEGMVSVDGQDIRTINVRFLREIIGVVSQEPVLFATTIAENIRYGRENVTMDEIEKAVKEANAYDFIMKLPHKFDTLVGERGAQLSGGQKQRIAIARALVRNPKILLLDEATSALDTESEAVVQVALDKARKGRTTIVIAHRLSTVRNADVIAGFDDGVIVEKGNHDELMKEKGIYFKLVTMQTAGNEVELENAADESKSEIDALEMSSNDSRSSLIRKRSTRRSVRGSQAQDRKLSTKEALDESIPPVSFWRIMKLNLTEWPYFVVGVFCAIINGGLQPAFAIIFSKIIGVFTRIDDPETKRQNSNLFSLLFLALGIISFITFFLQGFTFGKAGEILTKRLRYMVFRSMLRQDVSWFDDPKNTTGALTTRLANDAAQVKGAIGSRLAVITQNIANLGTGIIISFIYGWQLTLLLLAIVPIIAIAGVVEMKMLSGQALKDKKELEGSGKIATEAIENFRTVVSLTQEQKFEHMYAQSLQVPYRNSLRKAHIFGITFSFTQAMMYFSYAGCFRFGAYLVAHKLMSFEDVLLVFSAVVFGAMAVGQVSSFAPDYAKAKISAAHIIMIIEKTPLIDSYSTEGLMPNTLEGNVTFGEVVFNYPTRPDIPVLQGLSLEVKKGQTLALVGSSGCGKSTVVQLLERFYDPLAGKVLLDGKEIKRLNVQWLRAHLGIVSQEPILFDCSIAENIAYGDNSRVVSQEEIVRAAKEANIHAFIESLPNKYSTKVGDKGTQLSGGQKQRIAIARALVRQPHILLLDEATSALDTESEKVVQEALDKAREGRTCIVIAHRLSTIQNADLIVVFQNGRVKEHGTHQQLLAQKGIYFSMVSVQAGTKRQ

COC(=O)N[C@@H](C)CNc1nccc(-c2cn(C(C)C)nc2-c2cc(Cl)cc(NS(C)(=O)=O)c2F)n1 [encorafenib] gave an IC50 (P-glycoprotein (ABCB1)) of 25.1 µM and an IC50 (ABCC1) of 8.63 µM.
